Experimental data as given in PMC11310081, “Deep-learning-enabled antibiotic discovery through molecular de-extinction” (Nature Biomedical Engineering, 2024).
Peptide text beside a SMILES is read from it.

Columns and labels:
HEK293T cells = settings: 24 h
Procedure: HEK293T cells were obtained from the American Type Culture Collection (CRL-3216). The cells were cultured in high-glucose Dulbecco’s modified Eagle’s medium supplemented with 1% penicillin and streptomycin (antibiotics) and 10% fetal bovine serum and grown at 37 °C in a humidified atmosphere containing 5% CO2.
One day before the experiment, an aliquot of 100 μl of the cells at 50,000 cells per ml was seeded into each well of the cell-treated 96-well plates used in the experiment (that is, 5,000 cells per well). […] After the incubation period, we performed the 3-(4,5-dimethylthiazol-2-yl)-2,5-diphenyltetrazolium bromide tetrazolium reduction assay (MTT assay)[53]. The MTT reagent was dissolved at 0.5 mg ml^−1 in medium without phenol red and was used to replace cell culture supernatants containing the peptides (100 μl per well), and the samples were incubated for 4 h at 37 °C in a humidified atmosphere containing 5% CO2 yielding the insoluble formazan salt. The resulting salts were then resuspended in hydrochloric acid (0.04 mol l^−1) in anhydrous isopropanol and quantified by spectrophotometric measurements of absorbance at 570 nm. All assays were done as three biological replicates.
Unless otherwise stated, all assays were performed in three independent biological replicates as indicated in each figure legend and Methods sections. The cytotoxic activities values were estimated using non-linear regression based on the range of concentrations screened and were shown as the values that cause lysis of 50% of the cells in the experiment. Two technical replicates were performed in the cytotoxicity assays within each of the three biological replicates.

[1] = system: 11 clinically relevant bacterial pathogens; format: cell-based; settings: Supplementary Dataset 2; against the 11 pathogens tested
Excerpt: The following Gram-negative bacteria were used in our study: A. baumannii ATCC 19606, E. coli ATCC 11775, E. coli AIC221 (E. coli MG1655 phnE_2::FRT), E. coli AIC222 (E. coli MG1655 pmrA53 phnE_2::FRT (colistin resistant)), K. pneumoniae ATCC 13883, P. aeruginosa PAO1 and P. aeruginosa PA14. The following Gram-positive bacteria were also used in our study: S. aureus ATCC 12600, S. aureus ATCC BAA-1556 (methicillin-resistant strain), E. faecalis ATCC 700802 (vancomycin-resistant strain) and E. faecium ATCC 700221 (vancomycin-resistant strain). Bacteria were grown from frozen stocks and plated on Luria–Bertani (LB) or Pseudomonas isolation agar plates (P. aeruginosa strains) and incubated overnight at 37 °C. After the incubation period, a single colony was transferred to 5 ml of LB medium, and cultures were incubated overnight (16 h) at 37 °C. The following day, an inoculum was prepared by diluting the overnight cultures 1:100 in 5 ml of the respective media and incubating them at 37 °C until bacteria reached logarithmic phase (OD600 = 0.3–0.5).
The in vitro antimicrobial activity of the peptides was assessed by using the broth microdilution assay. […] Aqueous solutions of the peptides were added to the plate at concentrations ranging from 1 to 64 μmol l^−1. […] The optical density of the plates was measured at 600 nm using a spectrophotometer. All assays were done as three biological replicates.

A. baumannii ATCC 19606 [2] = assay: Skin abscess infection mouse model; format: in vivo, CD-1 mice; settings: CD-1 mice
Procedure: A. baumannii ATCC 19606 cells were grown in LB medium to an OD600 = 0.5. Cells were washed twice with sterile phosphate-buffered saline (PBS) (pH 7.4, 13,000 r.p.m. for 2 min) and resuspended to a final concentration of 10^6 (A. baumannii cells) colony-forming units per millilitre (c.f.u. ml^−1). Six-week-old female CD-1 mice from Charles River (stock number 18679700-022) were anaesthetized with isoflurane, and their backs were sterilized and shaved. A superficial linear skin abrasion was made with a needle to damage the stratum corneum and upper layer of the epidermis. An aliquot of 20 μl containing the bacterial load resuspended in PBS was inoculated over the scratched area. Two hours after the infection, peptides diluted in water at their MIC value were administered to the infected area, and the untreated mice were inoculated with the same volume of deionized water. Mice were euthanized, and the area of scarified skin was excised 2 days and 4 days post infection, homogenized using a bead beater for 20 min (25 Hz) and then serially diluted tenfold for quantification of colony-forming units. This quantitative method was used as it has been established to accurately reflect the number of bacteria present in a given infected area. MacConkey agar plates were used as A. baumannii colonies appear purple in this medium and can easily be distinguished from other strains. The experiments were performed with six mice per group. All experiments were performed blindly, and no animal subjects were excluded from the analysis. The skin abscess infection mouse model was approved by the University Laboratory Animal Resources from the University of Pennsylvania (protocol 806763). Statistical significance was determined using one-way analysis of variance (ANOVA) followed by Dunnett’s test in log10-transformed data to mitigate the effect of outliers; P values are presented for each group, with all groups being compared to the untreated control group.

A. baumannii ATCC 19606 [3] = assay: Neutropenic thigh infection mouse model; format: in vivo, CD-1 mice; settings: neutropenic CD-1 mice
Procedure: Six-week-old female CD-1 mice from Charles River (stock number 18679700-022) were rendered neutropenic by two doses of cyclophosphamide (150 mg kg^−1) applied intraperitoneally with an interval of 72 h. One day after the last dose of cyclophosphamide, the mice were injected intramuscularly in their right thigh with a bacterial load of 10^6 c.f.u. ml^−1 of A. baumannii ATCC 19606 cells. The bacteria had been grown in LB broth, washed twice with PBS (pH 7.4), and resuspended to the desired concentration. Two hours after bacterial injection, peptides resuspended in water were administered intraperitoneally, and the untreated mice were inoculated with the same volume of deionized water. Before each injection, mice were anaesthetized with isoflurane and monitored for respiratory rate and pedal reflexes. Next, we monitored the establishment of the infection and euthanized the mice. The infected area was excised 2 days and 4 days post infection, homogenized using a bead beater for 20 min (25 Hz), and then serially diluted tenfold for quantification of colony-forming units in MacConkey agar plates. The experiments were performed with six mice per group. All experiments were performed blindly, and no animal subjects were excluded from the analysis. The thigh infection mouse model was approved by the University Laboratory Animal Resources from the University of Pennsylvania (protocol 807055). Statistical significance was determined using one-way ANOVA followed by Dunnett’s test in log10-transformed data to mitigate the effect of outliers; P values are presented for each group, with all groups being compared to the untreated control group.

[4] = A. baumannii ATCC 19606, day 2, replicate 1
[5] = A. baumannii ATCC 19606, day 2, replicate 2
[6] = A. baumannii ATCC 19606, day 2, replicate 3
[7] = A. baumannii ATCC 19606, day 2, replicate 4
[8] = A. baumannii ATCC 19606, day 2, replicate 5
[9] = A. baumannii ATCC 19606, day 2, replicate 6
[10] = A. baumannii ATCC 19606, day 4, replicate 1
[11] = A. baumannii ATCC 19606, day 4, replicate 2
[12] = A. baumannii ATCC 19606, day 4, replicate 3
[13] = A. baumannii ATCC 19606, day 4, replicate 4
[14] = A. baumannii ATCC 19606, day 4, replicate 5
[15] = A. baumannii ATCC 19606, day 4, replicate 6

For CC[C@H](C)[C@H](NC(=O)[C@H](Cc1c[nH]cn1)NC(=O)[C@@H](N)CC(C)C)C(=O)NCC(=O)N[C@@H](CC(C)C)C(=O)N[C@H](C(=O)N[C@@H](CCCCN)C(=O)N[C@H](C(=O)N[C@@H](Cc1ccc(O)cc1)C(=O)N[C@@H](CC(C)C)C(=O)NCC(=O)N[C@@H](CO)C(=O)N[C@@H](Cc1ccccc1)C(=O)N[C@@H](C)C(=O)N[C@@H](CC(C)C)C(=O)O)[C@@H](C)O)[C@@H](C)CC [Eudyptin-1] (H-LHIGLIKTYLGSFAL-OH; N-terminus and C-terminus assumed), the CC50 (HEK293T cells) was greater than 128 µM, the “TI (therapeutic index)” value (HEK293T cells) was greater than 2 and the “Active or Inactive” value [1] was “Active”.

CC[C@H](C)[C@H](NC(=O)[C@H](Cc1ccccc1)NC(=O)[C@@H](N)CC(C)C)C(=O)NCC(=O)N[C@@H](CC(C)C)C(=O)N[C@H](C(=O)N[C@@H](CC(N)=O)C(=O)N[C@@H](CC(C)C)C(=O)N[C@@H](CC(C)C)C(=O)NCC(=O)N[C@@H](CC(C)C)C(=O)N[C@@H](CC(C)C)C(=O)O)[C@@H](C)O [Mammuthusin-4] (H-LFIGLTNLLGLL-OH; N-terminus and C-terminus assumed) was tested, and the CC50 (HEK293T cells) was greater than 128 µM and the “Active or Inactive” value [1] was “Active”.

In the case of CC[C@H](C)[C@H](N)C(=O)N[C@H](C(=O)NCC(=O)N[C@@H](CC(N)=O)C(=O)N[C@H](C(=O)N[C@@H](Cc1ccccc1)C(=O)NCC(=O)N[C@@H](Cc1ccccc1)C(=O)N[C@@H](CCCCN)C(=O)N[C@@H](C)C(=O)N[C@@H](CC(C)C)C(=O)N[C@@H](CCCNC(=N)N)C(=O)N[C@@H](C)C(=O)N[C@@H](CC(C)C)C(=O)N[C@@H](CCCNC(=N)N)C(=O)N[C@@H](CC(C)C)C(=O)O)C(C)C)C(C)C [Hesperelin-4] (H-IVGNVFGFKALRALRL-OH; N-terminus and C-terminus assumed), the “Active or Inactive” value [1] was “Active”.

For CC[C@H](C)[C@H](NC(=O)[C@H](CCCCN)NC(=O)[C@H](CC(C)C)NC(=O)[C@H](Cc1c[nH]cn1)NC(=O)[C@@H](N)CC(C)C)C(=O)N[C@@H](CC(C)C)C(=O)N[C@@H](CCCCN)C(=O)N[C@H](C(=O)N[C@H](C(=O)N[C@@H](CCCNC(=N)N)C(=O)N[C@@H](CC(C)C)C(=O)N[C@@H](CC(C)C)C(=O)O)[C@@H](C)CC)[C@@H](C)CC [Elephasin-1] (H-LHLKILKIIRLL-OH; N-terminus and C-terminus assumed), the “Active or Inactive” value [1] was “Active”.

For polymyxin B [reference compound], the “bacterial count, skin abscess (Panel 6b)” value (A. baumannii ATCC 19606 [2]; [4]) was 4000, the “bacterial count, skin abscess (Panel 6b)” value (A. baumannii ATCC 19606 [2]; [5]) was 2000 and the “bacterial count, skin abscess (Panel 6b)” value (A. baumannii ATCC 19606 [2]; [6]) was 8000. The “bacterial count, skin abscess (Panel 6b)” value (A. baumannii ATCC 19606 [2]; [7]) was 6000, the “bacterial count, skin abscess (Panel 6b)” value (A. baumannii ATCC 19606 [2]; [8]) was 1400 and the “bacterial count, skin abscess (Panel 6b)” value (A. baumannii ATCC 19606 [2]; [9]) was 400. For the same molecule, the “bacterial count, skin abscess (Panel 6b)” value (A. baumannii ATCC 19606 [2]; [10]) was 8000, the “bacterial count, skin abscess (Panel 6b)” value (A. baumannii ATCC 19606 [2]; [11]) was 10000 and the “bacterial count, skin abscess (Panel 6b)” value (A. baumannii ATCC 19606 [2]; [12]) was 600. The “bacterial count, skin abscess (Panel 6b)” value (A. baumannii ATCC 19606 [2]; [13]) was 600, the “bacterial count, skin abscess (Panel 6b)” value (A. baumannii ATCC 19606 [2]; [14]) was 200 and the “bacterial count, skin abscess (Panel 6b)” value (A. baumannii ATCC 19606 [2]; [15]) was 400. The “bacterial count, thigh infection (Panel 6d)” value (from here on “bacterial count … (Panel 6d)”) (A. baumannii ATCC 19606 [3]; [4]) was 20000, the “bacterial count … (Panel 6d)” value (A. baumannii ATCC 19606 [3]; [5]) was 80000 and the “bacterial count … (Panel 6d)” value (A. baumannii ATCC 19606 [3]; [6]) was 200000. For the same molecule, the “bacterial count … (Panel 6d)” value (A. baumannii ATCC 19606 [3]; [7]) was 40000, the “bacterial count … (Panel 6d)” value (A. baumannii ATCC 19606 [3]; [8]) was 40000 and the “bacterial count … (Panel 6d)” value (A. baumannii ATCC 19606 [3]; [9]) was 200000. For the same molecule, the “bacterial count … (Panel 6d)” value (A. baumannii ATCC 19606 [3]; [10]) was 200000, the “bacterial count … (Panel 6d)” value (A. baumannii ATCC 19606 [3]; [11]) was 400000 and the “bacterial count … (Panel 6d)” value (A. baumannii ATCC 19606 [3]; [12]) was 1200000. For the same molecule, the “bacterial count … (Panel 6d)” value (A. baumannii ATCC 19606 [3]; [13]) was 600000, the “bacterial count … (Panel 6d)” value (A. baumannii ATCC 19606 [3]; [14]) was 600000 and the “bacterial count … (Panel 6d)” value (A. baumannii ATCC 19606 [3]; [15]) was 200000.

With CC[C@H](C)[C@H](N)C(=O)N[C@@H](CC(C)C)C(=O)N[C@H](C(=O)N[C@@H](CC(C)C)C(=O)N[C@@H](Cc1ccccc1)C(=O)N[C@H](C(=O)N[C@H](C(=O)N[C@@H](Cc1ccccc1)C(=O)N[C@@H](CCC(N)=O)C(=O)N[C@@H](CC(C)C)C(=O)N[C@@H](CCCCN)C(=O)N[C@H](C(=O)N[C@@H](CO)C(=O)N[C@@H](CCCCN)C(=O)N[C@@H](CC(C)C)C(=O)O)[C@@H](C)CC)[C@@H](C)CC)[C@@H](C)CC)[C@@H](C)O [Paleopropin-2] (H-ILTLFIIFQLKISKL-OH; N-terminus and C-terminus assumed) the CC50 (HEK293T cells) was greater than 128 µM, the “TI (therapeutic index)” value (HEK293T cells) was greater than 8 and the “Active or Inactive” value [1] was “Active”.

With CC[C@H](C)[C@H](N)C(=O)N[C@@H](CC(C)C)C(=O)N[C@@H](CC(C)C)C(=O)N[C@H](C(=O)N[C@H](C(=O)N[C@@H](C)C(=O)N[C@H](C(=O)N[C@@H](C)C(=O)N[C@H](C(=O)N[C@@H](CCCCN)C(=O)N[C@@H](CC(C)C)C(=O)NCC(=O)N[C@@H](CC(C)C)C(=O)O)[C@@H](C)CC)[C@@H](C)CC)[C@@H](C)O)[C@@H](C)O [Ararin-1] (H-ILLTTAIAIKLGL-OH; N-terminus and C-terminus assumed) the CC50 (HEK293T cells) was greater than 128 µM, the “TI (therapeutic index)” value (HEK293T cells) was greater than 4 and the “Active or Inactive” value [1] was “Active”.
